# Laboratory results: patent US20230255868A1, “SANITIZING COMPOSITION” (Conopco, Inc., d/b/a UNILEVER, priority 2020, published 2023)
# Tested on: Adenovirus
# Test: ASTM E1052-20 microbicides against viruses in suspension
# Format: cell-based
# Settings: 60 Seconds, remaining virus titre, Control 4.75
# Method: Skin, as used herein, is meant to include skin on the arms (including underarms), face, feet, neck, chest, hands, legs, buttocks and scalp (including hair). Sanitizing as used herein means a bacteria log kill of at least 2 and a viral log inactivation of at least 2 (both achieved) in less than 3 minutes after topical application to a surface. Sanitizing precursor means a composition which is a concentrate and suitable to be diluted (or hydrated) with water to produce a sanitizing composition ready for use. Combination, as used herein means, total weight of cetrimonium chloride plus benzalkonium chloride. Skin benefit agent means an ingredient suitable to improve a skin characteristic. Surface as used herein includes skin or the surface of an inanimate object such as a table top, computer monitor, door knob, toilet seat, shopping cart handle or even a clothing garment. Surface is also meant to include the coat of an animal such as the fur on a dog and cat. As used herein, surface preferably means human skin, and especially, skin on the face and hands. The dimonium and trimonium compounds used herein are meant to include salts of the same, especially chlorides and bromides of the same. Cationic surfactant, as used herein, is meant to include polyquaternium materials, like for example, polyquaternium-6. In an embodiment of the invention, the sanitizing composition of the present invention is a home care composition like a laundry spray composition suitable to spray clothing and upholstery requiring sanitizing. The home care composition can also be a sanitizing kitchen or bathroom spray composition. […] The composition of the present invention may optionally comprise skin benefit agents added thereto such as emollients, vitamins and/or derivatives thereof, resorcinols, retinoic acid precursors, colorants, moisturizers or humectants, fragrances, sunscreens, a mixture thereof or the like. The skin benefit ingredients may be water or oil soluble. The sanitizing composition, therefore, is an aqueous based composition with a pH from 3.0 to 8.2, and the composition is water continuous. Viscosity, as used herein, is taken with a Brookfield RV spindle 6 at 20 rpm for 30 seconds at 25° C. unless noted otherwise. […] Antimicrobial benefits mean at least a log kill of 2 in under 3 minutes whereby antimicrobial assessment is measured via test method ASTM-E2783-11 (Reapproved 2016) which sets forth the procedure for measuring antimicrobial activity for water miscible compounds using a time kill procedure. Viral (or virus) inactivation is determined by assessing the impact of microbiocides against viruses as set forth in ASTM-1052-20. […]
Compound,"ADENOVIRUS Inactivation, Log10 TCID 50/0.1 ml (test substance at 0.05%) [Log10 TCID 50/0.1 ml]","ADENOVIRUS Inactivation, Log10 TCID 50/0.1 ml (test substance at 0.1%) [Log10 TCID 50/0.1 ml]"
"CCCCCCCCCCCCCCCC[n+]1ccccc1.[Cl-] [CPC, cetylpyridinum chloride]",1.6,1.6
"CCCCCCCCCCCCCCCC[N+](C)(C)C.[Br-] [CTAB, cetrimonium bromide]",2.5,1.75
